Experimental data: ChEMBL document CHEMBL5038569, “Targeting RECQL5 Functions, by a Small Molecule, Selectively Kills Breast Cancer in Vitro and in Vivo” (J Med Chem, 2021)
Calls of active or inactive are those of the source. The rule behind the calls is not given here.

Assays:
MDA-MB-231 = test: Induction of apoptosis in RECQL5 depleted human MDA-MB-231 cells assessed as cell death measured after 72 hrs by propidium iodide/RNase A staining based flow cytometric analysis; type: functional
MCF7 [1] = test: Cytotoxicity against RECQL5 knock out human MCF7 cells assessed as cell growth inhibition measured after 72 hrs by MTT assay; type: functional; conditions: dose 6-50 µM
MCF7 [2] = test: Induction of mitotic catastrophe phenotype in human MCF7 cells assessed as micronucleus formation at 20 uM pretreated with cisplatin for 8 hrs followed by compound addition and measured after 24 hrs by immunofluorescence microscopic analysis; type: functional, cell-based
[3] = biological target: T1, DNA repair protein RAD51 homolog 1 (Homo sapiens) (UniProt Q06609); test: Stabilization of RAD51 foci in human MCF7 cells assessed as increase in RAD51 positive cells at 20 uM pretreated with cisplatin for 8 hrs followed by compound addition and measured after 24 hrs by immunofluorescence microscopic analysis; type: cell-based
T1 sequence (whole entry): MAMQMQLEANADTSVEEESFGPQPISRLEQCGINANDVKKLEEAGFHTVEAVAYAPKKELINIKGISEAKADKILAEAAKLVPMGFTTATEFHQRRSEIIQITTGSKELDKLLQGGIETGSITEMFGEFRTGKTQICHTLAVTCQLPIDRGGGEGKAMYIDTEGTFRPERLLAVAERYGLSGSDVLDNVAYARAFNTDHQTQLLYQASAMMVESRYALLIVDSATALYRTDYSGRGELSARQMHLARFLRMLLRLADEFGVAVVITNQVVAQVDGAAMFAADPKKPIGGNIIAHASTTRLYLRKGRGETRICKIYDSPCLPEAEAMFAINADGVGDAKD

MCF7 [4] = test: Induction of mitotic catastrophe phenotype in human cisplatin-resistant MCF7 cells assessed as fused nucleus at 20 uM pretreated with cisplatin for 8 hrs followed by compound addition and measured after 24 hrs by immunofluorescence microscopic analysis; type: functional, cell-based
T47D [5] = test: Inhibition of homologous recombinant repair in human T47D cells expressing wild type RECQL5 assessed as stabilization of RAD51-RECQL5 interaction by measuring increase in RAD51 foci formation at 20 uM measured after 4 to 24 hrs by immunofluorescence microscopic analysis; type: functional, cell-based; conditions: time 4-24 hrs
MCF7 [6] = test: Induction of apoptosis in human MCF7 cells expressing wild type RECQL5 assessed as fold increase in cell death at 20 uM measured after 72 hrs by propidium iodide/RNase A staining based flow cytometric analysis relative to control; type: functional
U2OS [7] = test: Induction of apoptosis in RECQL5 depleted human U2OS cells assessed as cell death measured after 72 hrs by propidium iodide/RNase A staining based flow cytometric analysis; type: functional
MCF7 [8] = test: Induction of mitotic catastrophe phenotype in human cisplatin-resistant MCF7 cells assessed as nuclear bridge formation at 20 uM pretreated with cisplatin for 8 hrs followed by compound addition and measured after 24 hrs by immunofluorescence microscopic analysis; type: functional, cell-based
MCF7 [9] = test: Cytotoxicity against human MCF7 cells expressing RECQL5-RFP wild type helicase assessed as sensitizing activity by measuring colony survival at 5 to 20 uM measured after 8 to 10 days by clonogenic survival assay; type: functional, cell-based; conditions: dose 5-20 µM, time 8-10 day
T47D [10] = test: Cytotoxicity against ER/PR-positive HER2-negative CRISPR/Cas9 engineered human T47D cells expressing wild type RECQL5 and p53 mutant assessed as reduction in colony formation measured after 8 to 10 days by clonogenic survival assay; type: functional, cell-based; conditions: time 8-10 day
MCF7 [11] = test: Cytotoxicity against human MCF7 cells expressing RECQL5 assessed as cell growth inhibition measured after 72 hrs by MTT assay; type: functional
MCF7 [12] = test: Effect on homologous recombinant repair in RECQL5 knock out human MCF7 cells assessed as accumulation of RAD50 protein on chromatin at 20 uM incubated for 4 to 24 hrs by Western blot analysis; type: functional, cell-based; conditions: time 4-24 hrs
MCF7 [13] = test: Induction of DNA damage in RECQL5 knock out human MCF7 cells assessed as double strand breaks by measuring increase in phosphorylation of ATM at S1981 residue at 20 uM measured up to 24 hrs by Western blot analysis; type: functional, cell-based; conditions: time hrs <=24
[14] = Drug concentration in nude mouse serum at 50 mg/kg, po administered alternative days via gavage and measured upto 4 hrs by HPLC analysis; type: ADME, organism-based; conditions: read-out: Drug uptake
[15] = Toxicity in nude mouse xenografted with human MCF7 cells assessed as morphological changes in liver at 50 mg/kg, po administered via oral gavage and measured after 30 days; type: organism-based; conditions: in vivo, 720 h, time 30 day
MCF7 [16] = test: Induction of DNA damage in human MCF7 cells expressing wild type RECQL5 assessed as double strand breaks by measuring increase in gamma-H2AX foci formation incubated for 24 hrs by immunofluorescence microscopic analysis; type: functional, cell-based; conditions: dose 0-20 µM
MCF7 [17] = test: Induction of DNA damage in human MCF7 cells expressing wild type RECQL5 assessed as double strand breaks by measuring increase in phosphorylation of ATM at S1981 residue at 20 uM measured up to 24 hrs by Western blot analysis; type: functional, cell-based; conditions: time hrs <=24
U2OS [18] = test: Cytotoxicity against human U2OS cells expressing wild type RECQL5 and p53 mutant assessed as reduction in colony formation measured after 8 to 10 days by clonogenic survival assay; type: functional, cell-based; conditions: time 8-10 day
[19] = Selectivity ratio of IC20 for cytotoxicity against human MCF-10A cells expressing RECQL5 to IC20 for cytotoxicity against human MCF7 cells expressing RECQL5; type: toxicity, cell-based
[20] = Toxicity in […] mouse assessed as fold change in spleen cell count at 100 mg/kg, po administered as single dose via gavage measured after 30 days relative to control; type: organism-based; conditions: in vivo, 720 h, time 30 day
[21] = Chronic toxicity in […] mouse assessed as change in body weight at 100 mg/kg, po administered as single dose via gavage measured for 30 days; type: organism-based; conditions: in vivo, 720 h, time 30 day
MCF7 [22] = test: Induction of DNA damage in RECQL5 knock out human MCF7 cells assessed as double strand breaks by measuring increase in phosphorylation of RPA2 at 20 uM measured after 4 to 24 hrs by Western blot analysis; type: functional, cell-based; conditions: time 4-24 hrs
MCF7 [23] = test: Antitumor activity against human MCF7 cells expressing wild type RECQL5 xenografted in nude mouse assessed as reduction in tumor growth at 50 mg/kg, po administered as single dose via gavage measured after 30 days; type: functional, organism-based; conditions: time 30.0 day, TDE = time-dependent effect
MCF7 [24] = test: Cytotoxicity against human MCF7 cells expressing RECQL5-RFP K58M helicase dead mutant assessed as sensitizing activity by measuring colony survival at 5 to 20 uM measured after 8 to 10 days by clonogenic survival assay; type: functional, cell-based; conditions: dose 5-20 µM, time 8-10 day
MCF7 [25] = test: Induction of DNA damage in human MCF7 cells expressing wild type RECQL5 assessed as double strand breaks by measuring increase in phosphorylation of CHK2 at T68 residue at 20 uM measured up to 24 hrs by Western blot analysis; type: functional, cell-based; conditions: time hrs <=24
[26] = Toxicity in nude mouse xenografted with human MCF7 cells assessed as morphological changes in lungs at 50 mg/kg, po administered via oral gavage and measured after 30 days; type: organism-based; conditions: in vivo, 720 h, time 30 day
MCF7 [27] = test: Cytotoxicity against human MCF7 cells expressing wild type RECQL5 assessed as inhibition of colony formation measured after 8 to 10 days by clonogenic survival assay; type: functional, cell-based

**Q.** What does the source list for `O=C(Nc1cc(C(F)(F)F)cc(C(F)(F)F)c1)N[C@@H](c1ccccc1)c1nnc(SCc2ccccc2)o1`?
**A.** Activity (MDA-MB-231): inactive; IC20 (MCF7 [1]): 22.3 µM; Activity (MCF7 [2]): Active; Activity [3]: Active; Activity (MCF7 [4]): Active; inhibition (T47D [5]): Active; fold change (FC) (MCF7 [6]): 2.5; Activity (U2OS [7]): inactive; Activity (MCF7 [8]): Active; Activity (MCF7 [9]): Active; Activity (T47D [10]): Active; IC20 (MCF7 [11]): 8.4 µM; Activity (MCF7 [12]): inactive; Activity (MCF7 [13]): inactive; concentration at 4 h [14]: 14.8 µM; Activity [15]: Non-Toxic; Activity (MCF7 [16]): Dose-Dependent Effect; Activity (MCF7 [17]): Active; Activity (U2OS [18]): Active; selectivity ratio [19]: 4; fold change (FC) [20]: 1.03; Activity [21]: Non-Toxic; Activity (MCF7 [22]): inactive; Activity (MCF7 [23]): Tde; Activity (MCF7 [24]): Active; Activity (MCF7 [25]): Active; Activity [26]: Non-Toxic; IC50 (MCF7 [27]): 4.8 µM
